The text below walks through data of PMC10324308, “Biodegradation of Amphipathic Fluorinated Peptides Reveals a New Bacterial Defluorinating Activity and a New Source of Natural Organofluorine Compounds” (Environmental Science & Technology, 2023).

In data set [1] the target is T1, bromelain (pineapple stem) (Ananas comosus, UniProt P14518).
T1 construct: purchased Sigma-Aldrich (Steinheim, Germany); host or cells: pineapple stem
T1 sequence (P14518 1-212): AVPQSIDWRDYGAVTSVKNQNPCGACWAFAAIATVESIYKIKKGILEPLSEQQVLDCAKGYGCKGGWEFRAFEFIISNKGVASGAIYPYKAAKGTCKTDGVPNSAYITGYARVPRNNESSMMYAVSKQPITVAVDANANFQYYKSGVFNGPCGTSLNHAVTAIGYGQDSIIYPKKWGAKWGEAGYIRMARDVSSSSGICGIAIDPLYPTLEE
The data set is described as follows: Peptide digestion assay with bromelain. Format: in vitro ADME. As to conditions: 500 μM peptide, bromelain 4.5 μM, 50 mM bis-tris propane + 20 mM CaCl2, pH 8, 30 °C, HPLC (DAD-280 nm); for digestion by bromelain: 300 rpm, triplicates. The protocol: (§1) Freeze-dried peptides AbuK16, MfeGlyK16, DfeGlyK16, and TfeGlyK16 were dissolved in 100 μL of buffer (50 mM bis-tris propane + 20 mM CaCl2, pH 8) to a final concentration of 500 μM. The peptides were incubated with different proteolytic enzymes (10 μL in buffer): trypsin (0.075 μM), elastase (0.45 μM), proteinase K (0.075 μM), and bromelain (4.5 μM). The experiments were incubated at either 37 °C (trypsin and proteinase K) or 30 °C (elastase and bromelain) in a Thriller thermoshaker-incubator (VWR International, Radnor, PA, USA) with shaking at 300 rpm. Aliquots (15 μL) were taken at fixed time points and quenched with 90 μL of a solution of 30% acetic acid in water containing 133 μM Ac-[4]Abz-Gly-OH as a reference. Peptide degradation was monitored by high-performance liquid chromatography (HPLC) using a Hitachi Primaide UV-HPLC system (VWR/Hitachi, Darmstadt, Germany). A Kinetex RP-C18 ([…], 100 Å, 250 × 4.6 mm, Phenomenex, USA) column and a SecurityGuard Cartridge Kit equipped with a C18 cartridge (4 × 3.0 mm, Phenomenex, USA) as a pre-column was used. The mobile phases employed were 0.1% aqueous […] (TFA) (solvent A) and acetonitrile + 0.1% TFA (solvent B). The solvent conditions for analysis were as follows: 0–5 min, 5% B; 5–20 min, 5–90% B; 20–23 min, 90–100% B; 23–25 min, 100% B; 25–27 min, 100–5% B; and 27–30 min, 5% B. In all cases, the peaks corresponding to each peptide sample (full-length peptides) and the reference sample were integrated and used to determine the amount of the substrate still present in solution. The content of starting material after 5 min was termed as absolute amount for simplicity. All experiments were performed in triplicates, and error bars were obtained as standard deviations of measurements.
(§2) Figure 2 Proteolytic digestion of AbuK16, MfeGlyK16, DfeGlyK16, and TfeGlyK16 by the serine proteases β-trypsin, elastase, proteinase K, and bromelain (pineapple stem) in 50 mM bis-tris propane + 20 mM CaCl2, pH 8, at 37 °C (β-trypsin and proteinase K) or 30 °C (elastase and bromelain). Real-time detection of peptide proteolysis and calculation of remaining peptide amounts were accomplished by HPLC analysis (DAD-280 nm).

The test system of the next data set is β-trypsin (pancreas). The data set is described as follows: Peptide digestion assay with β-trypsin. Format: in vitro ADME. As to conditions: after 2 h; 500 μM peptide, trypsin 0.075 μM, 50 mM bis-tris propane + 20 mM CaCl2, pH 8, 37 °C, 300 rpm; HPLC (DAD-280 nm); triplicates. On the procedure:
as §1, §2

In the next data set the target is T2, elastase (pancreas) (Sus scrofa, UniProt P00772).
T2 construct: purchased Sigma-Aldrich (Steinheim, Germany); host or cells: pancreas
The data set is described as follows: Peptide digestion assay with elastase. The data set is classed as in vitro ADME. The note with it: after 4 h; 500 μM peptide, elastase 0.45 μM, 50 mM bis-tris propane + 20 mM CaCl2, pH 8, 30 °C, 300 rpm; HPLC (DAD-280 nm); triplicates. The protocol: as §1, with “The solvent conditions for analysis were as follows: 0–5 min, 5% B; 5–20 min, 5–90% B; 20–23 min, 90–100% B; 23–25 min, 100% B; 25–27 min, 100–5% B; and 27–30 min, 5% B. In all cases, the peaks corresponding to each peptide sample (full-length peptides) and the reference sample were integrated and used to determine the amount of the substrate still present in solution. The content of starting material after 5 min was termed as absolute amount for simplicity. All experiments were performed in triplicates, and error bars were obtained as standard deviations of measurements.” left out

For the next data set, the target named is T3, proteinase K (Parengyodontium album, UniProt P06873).
T3 construct: purchased Sigma-Aldrich (Steinheim, Germany)
The data set is described as follows: Peptide digestion assay with proteinase K. Format: in vitro ADME, Tritirachium album. The note with it: 500 μM peptide, proteinase K 0.075 μM, 50 mM bis-tris propane + 20 mM CaCl2, pH 8, 37 °C, HPLC (DAD-280 nm), triplicates; for proteolytic stability against proteinase K: after 4 h, 300 rpm. On the procedure:
as §1
Figure 2 Proteolytic digestion of AbuK16, MfeGlyK16, DfeGlyK16, and TfeGlyK16 by the serine proteases β-trypsin, elastase, proteinase K, and bromelain (pineapple stem) in 50 mM bis-tris propane + 20 mM CaCl2, pH 8, at 37 °C (β-trypsin and proteinase K) or 30 °C (elastase and bromelain). […]

Where a SMILES comes first, the peptide text is derived from it. [ ]: non-standard residue; d: D form. Abu(4,4,4-F3) = N[C@@H](CC(F)(F)F)C(=O)O; Abu(4,4-F2) = N[C@@H](CC(F)F)C(=O)O; 4Abz = Nc1ccc(C(=O)O)cc1; Abu = CC[C@H](N)C(=O)O

T3 sequence (P06873 106-384): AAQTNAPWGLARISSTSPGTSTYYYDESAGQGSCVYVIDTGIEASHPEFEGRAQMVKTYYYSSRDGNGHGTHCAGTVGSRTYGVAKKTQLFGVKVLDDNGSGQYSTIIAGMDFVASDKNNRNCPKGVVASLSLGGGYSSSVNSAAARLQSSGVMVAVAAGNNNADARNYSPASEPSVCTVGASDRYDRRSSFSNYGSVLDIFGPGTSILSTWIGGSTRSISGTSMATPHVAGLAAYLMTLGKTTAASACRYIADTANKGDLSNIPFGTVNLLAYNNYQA
T2 sequence (P00772 27-266): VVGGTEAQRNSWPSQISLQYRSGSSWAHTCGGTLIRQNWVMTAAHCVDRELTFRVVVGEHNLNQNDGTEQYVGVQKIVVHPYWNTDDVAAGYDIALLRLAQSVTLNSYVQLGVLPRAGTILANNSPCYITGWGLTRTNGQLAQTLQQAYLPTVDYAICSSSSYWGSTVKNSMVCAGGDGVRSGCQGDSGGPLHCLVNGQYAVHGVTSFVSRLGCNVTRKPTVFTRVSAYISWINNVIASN

`CC[C@H](NC(C)=O)C(=O)N[C@@H](CCCCN)C(=O)N[C@@H](CC)C(=O)N[C@@H](CCCCN)C(=O)N[C@@H](CC)C(=O)N[C@@H](CCCCN)C(=O)N[C@@H](CC)C(=O)N[C@@H](CCCCN)C(=O)N[C@@H](CC)C(=O)N[C@@H](CCCCN)C(=O)N[C@@H](CC)C(=O)N[C@@H](CCCCN)C(=O)N[C@@H](CC)C(=O)N[C@@H](CCCCN)C(=O)N[C@@H](CC)C(=O)N[C@@H](CCCCN)C(=O)Nc1ccc(C(N)=O)cc1` [AbuK16, Ac-(Abu-Lys)8-[4]Abz-NH2] (Ac-[Abu]K[Abu]K[Abu]K[Abu]K[Abu]K[Abu]K[Abu]K[Abu]K[4Abz]-NH2): the digestion by bromelain result in data set [1] is “digested”. For the same molecule, the “remaining full-length peptide after digestion by β-trypsin” value in the data set with β-trypsin (pancreas) is listed as “comparably higher amounts of peptide were detected”.
Consider `CC(=O)N[C@@H](CC(F)(F)F)C(=O)N[C@@H](CCCCN)C(=O)N[C@@H](CC(F)(F)F)C(=O)N[C@@H](CCCCN)C(=O)N[C@@H](CC(F)(F)F)C(=O)N[C@@H](CCCCN)C(=O)N[C@@H](CC(F)(F)F)C(=O)N[C@@H](CCCCN)C(=O)N[C@@H](CC(F)(F)F)C(=O)N[C@@H](CCCCN)C(=O)N[C@@H](CC(F)(F)F)C(=O)N[C@@H](CCCCN)C(=O)N[C@@H](CC(F)(F)F)C(=O)N[C@@H](CCCCN)C(=O)N[C@@H](CC(F)(F)F)C(=O)N[C@@H](CCCCN)C(=O)Nc1ccc(C(N)=O)cc1` [TfeGlyK16, Ac-(TfeGly-Lys)8-[4]Abz-NH2] (Ac-[Abu(4,4,4-F3)]K[Abu(4,4,4-F3)]K[Abu(4,4,4-F3)]K[Abu(4,4,4-F3)]K[Abu(4,4,4-F3)]K[Abu(4,4,4-F3)]K[Abu(4,4,4-F3)]K[Abu(4,4,4-F3)]K[4Abz]-NH2), for which the “remaining full-length peptide after digestion by elastase” value at elastase (pancreas) is “lower amounts of DfeGlyK16 and TfeGlyK16 detected than AbuK16 and MfeGlyK16”. Also, the digestion by bromelain entry in data set [1] is “resistant to this protease”. Moreover, in data set [1] (after 3 days incubation), the “remaining peptide after digestion by bromelain” value was “noticeable amounts of this peptide were still present”. Moreover, the “remaining full-length peptide after digestion by β-trypsin” value in the data set with β-trypsin (pancreas) is on record as “mostly consumed”. Further, the “proteolytic stability against proteinase K” value on proteinase K is recorded as “pronounced stability”. Moreover, on proteinase K (within 24 h), the “digestion by proteinase K” value is listed as “largely digested”.
As for `CC(=O)N[C@@H](CCF)C(=O)N[C@@H](CCCCN)C(=O)N[C@@H](CCF)C(=O)N[C@@H](CCCCN)C(=O)N[C@@H](CCF)C(=O)N[C@@H](CCCCN)C(=O)N[C@@H](CCF)C(=O)N[C@@H](CCCCN)C(=O)N[C@@H](CCF)C(=O)N[C@@H](CCCCN)C(=O)N[C@@H](CCF)C(=O)N[C@@H](CCCCN)C(=O)N[C@@H](CCF)C(=O)N[C@@H](CCCCN)C(=O)N[C@@H](CCF)C(=O)N[C@@H](CCCCN)C(=O)Nc1ccc(C(N)=O)cc1` [MfeGlyK16, Ac-(MfeGly-Lys)8-[4]Abz-NH2], the digestion by bromelain entry in data set [1] is reported as “digested”. The “remaining full-length peptide after digestion by β-trypsin” value in the data set on β-trypsin (pancreas) is listed as “comparably higher amounts of peptide were detected”. Further, the “proteolytic stability against proteinase K” value at proteinase K was “higher proteolytic stability of MfeGlyK16 than that for AbuK16 and DfeGlyK16”.
Consider `CC(=O)N[C@@H](CC(F)F)C(=O)N[C@@H](CCCCN)C(=O)N[C@@H](CC(F)F)C(=O)N[C@@H](CCCCN)C(=O)N[C@@H](CC(F)F)C(=O)N[C@@H](CCCCN)C(=O)N[C@@H](CC(F)F)C(=O)N[C@@H](CCCCN)C(=O)N[C@@H](CC(F)F)C(=O)N[C@@H](CCCCN)C(=O)N[C@@H](CC(F)F)C(=O)N[C@@H](CCCCN)C(=O)N[C@@H](CC(F)F)C(=O)N[C@@H](CCCCN)C(=O)N[C@@H](CC(F)F)C(=O)N[C@@H](CCCCN)C(=O)Nc1ccc(C(N)=O)cc1` [DfeGlyK16, Ac-(DfeGly-Lys)8-[4]Abz-NH2] (Ac-[Abu(4,4-F2)]K[Abu(4,4-F2)]K[Abu(4,4-F2)]K[Abu(4,4-F2)]K[Abu(4,4-F2)]K[Abu(4,4-F2)]K[Abu(4,4-F2)]K[Abu(4,4-F2)]K[4Abz]-NH2), for which the “remaining full-length peptide after digestion by elastase” value on elastase (pancreas) is “lower amounts of DfeGlyK16 and TfeGlyK16 detected than AbuK16 and MfeGlyK16”. Also, the digestion by bromelain result in data set [1] is recorded as “digested”. In addition, in the data set with β-trypsin (pancreas), the “remaining full-length peptide after digestion by β-trypsin” value was “mostly consumed”.
